This assay concerns the target T1, HPK1 (Homo sapiens, UniProt Q92918).
T1 construct: A HiBiT tag was introduced by CRISPR on the N terminus of HPK1 in Jurkat cells; host or cells: Jurkat cells (ATCC TIB-152), monoclonal line with CRISPR knock-in of HiBiT at the endogenous HPK1 locus
The assay can be described thus: HPK1 Cellular HiBit Degradation Assay. The assay is classed as cell-based. Conditions: HiBiT HPK1 Jurkat cells, 24 hrs; for DC50: concentration at which 50% of HPK1 was remaining, read-out: DC50 Category; for Dmax: Jurkat, maximum degradation vs DMSO vehicle control, read-out: Dmax Category. A digest of the protocol:
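HPK1 levels are read by HiBiT luminescence after 24 h exposure of HiBiT-knock-in Jurkat cells to compound at 10 uM–0.1 nM final (11 points). Relative to DMSO (100%), DC50 is the concentration leaving 50% HPK1 from a variable-slope fit, and Dmax is 100 minus minimum remaining. Viability checked in-plate.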
In general terms: With HiBiT, luminescence reflects the tagged protein that the partner subunit can reach.

Among the data in patent US12091426B2, “Bifunctional degraders of hematopoietic progenitor kinase and therapeutic uses thereof” (Nurix Therapeutics, Inc., priority 2021, dated 2024) are DC50 and Dmax values, retold here.

T1 sequence (Q92918 whole entry): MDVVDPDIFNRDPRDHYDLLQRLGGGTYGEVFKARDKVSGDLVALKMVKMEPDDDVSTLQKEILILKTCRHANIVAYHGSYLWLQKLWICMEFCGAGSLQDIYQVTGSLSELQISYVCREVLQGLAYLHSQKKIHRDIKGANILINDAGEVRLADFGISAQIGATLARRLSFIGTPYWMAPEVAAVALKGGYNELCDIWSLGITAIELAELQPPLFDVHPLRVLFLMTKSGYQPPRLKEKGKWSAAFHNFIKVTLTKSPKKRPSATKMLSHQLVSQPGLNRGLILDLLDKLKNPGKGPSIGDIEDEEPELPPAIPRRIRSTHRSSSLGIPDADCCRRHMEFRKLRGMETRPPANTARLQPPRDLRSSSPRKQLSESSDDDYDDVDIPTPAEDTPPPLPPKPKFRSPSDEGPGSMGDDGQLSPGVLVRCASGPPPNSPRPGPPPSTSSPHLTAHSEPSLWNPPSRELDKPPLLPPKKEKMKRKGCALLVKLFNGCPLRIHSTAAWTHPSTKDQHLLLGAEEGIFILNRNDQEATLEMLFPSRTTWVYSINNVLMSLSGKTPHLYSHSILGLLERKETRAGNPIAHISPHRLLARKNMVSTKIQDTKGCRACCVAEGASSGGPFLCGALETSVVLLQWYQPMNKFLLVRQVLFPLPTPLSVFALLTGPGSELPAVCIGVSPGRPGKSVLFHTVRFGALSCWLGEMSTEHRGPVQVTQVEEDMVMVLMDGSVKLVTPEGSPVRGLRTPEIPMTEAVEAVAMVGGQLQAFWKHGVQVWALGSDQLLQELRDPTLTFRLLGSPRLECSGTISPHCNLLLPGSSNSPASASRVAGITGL

As usually defined, the DC50 is the concentration giving 50% degradation. Usually Dmax stands for the greatest extent of degradation seen. In the case of `CC(C)n1cnc2cc(-c3ccc4c(c3)N([C@H]3C[C@@H](N5CCCCC5)C3)C(=O)C43CCN(C(=O)[C@]4(C)CCN(C(=O)C5CCN(c6ccc([C@@H]7CCC(=O)NC7=O)cc6)CC5)C4)CC3)nc(NC3CC3)c21` (racemic) [Example 244, (3RS)-3-(4-{4-[(3R)-3-({6-[4-(cyclopropylamino)-3-(propan-2-yl)-3H-imidazo[4,5-c]pyridin-6-yl]-2-oxo-1-[(1S,3S)-3-(piperidin-1-yl)cyclobutyl]-1,2-dihydrospiro[indole-3,4′-piperidin]-1′-yl}carbonyl)-3-methylpyrrolidine-1-carbonyl]piperidin-1-yl}phenyl)piperidine-2,6-dione], the DC50 was < 0.1 µM and the Dmax lay within 70 to 85%.

Regarding `CC(C)n1cnc2cc(-c3ccc4c(c3)N([C@H]3C[C@@H](N5CCCCC5)C3)C(=O)C43CCN(C(=O)[C@@H]4CCN(C(=O)C5CCN(c6ccc(C7CCC(=O)NC7=O)cn6)CC5)[C@H](C)C4)CC3)nc(NC3CC3)c21` (mixture of isomers) [Example 245, (3RS)-3-(6-{4-[(2R,4R)-4-({6-[4-(cyclopropylamino)-3-(propan-2-yl)-3H-imidazo[4,5-c]pyridin-6-yl]-2-oxo-1-[(1S,3S)-3-(piperidin-1-yl)cyclobutyl]-1,2-dihydrospiro[indole-3,4′-piperidin]-1′-yl}carbonyl)-2-methylpiperidine-1-carbonyl]piperidin-1-yl}pyridin-3-yl)piperidine-2,6-dione], the 50% degradation concentration (DC50) is < 0.1 µM and the Dmax lay in the range of 70 to 85%.

In the case of `CC(C)n1cnc2cc(-c3ccc4c(c3)N([C@H]3C[C@@H](N5CCCCC5)C3)C(=O)C43CCN(C(=O)[C@H]4C[C@@H](C)CN(C(=O)C5CCN(c6ccc(C7CCC(=O)NC7=O)cn6)CC5)C4)CC3)nc(NC3CC3)c21` (mixture of isomers) [Example 246, (3RS)-3-(6-{4-[(3S,5R)-3-({6-[4-(cyclopropylamino)-3-(propan-2-yl)-3H-imidazo[4,5-c]pyridin-6-yl]-2-oxo-1-[(1S,3S)-3-(piperidin-1-yl)cyclobutyl]-1,2-dihydrospiro[indole-3,4′-piperidin]-1′-yl}carbonyl)-5-methylpiperidine-1-carbonyl]piperidin-1-yl}pyridin-3-yl)piperidine-2,6-dione], the half-maximal degradation concentration (DC50) was in the range of 0.1 to 0.5 µM and the Dmax was in the range of 50 to 70%.

Regarding `CC(C)n1cnc2cc(-c3ccc4c(c3)N([C@H]3C[C@@H](N5CCCCC5)C3)C(=O)C43CCN(C(=O)[C@H]4CCN(C(=O)C5CCN(c6ccc(C7CCC(=O)NC7=O)cn6)CC5)C[C@H]4C)CC3)nc(NC3CC3)c21` (mixture of isomers) [Example 247, (3RS)-3-(6-{4-[(3S,4S)-4-({6-[4-(cyclopropylamino)-3-(propan-2-yl)-3H-imidazo[4,5-c]pyridin-6-yl]-2-oxo-1-[(1S,3S)-3-(piperidin-1-yl)cyclobutyl]-1,2-dihydrospiro[indole-3,4′-piperidin]-1′-yl}carbonyl)-3-methylpiperidine-1-carbonyl]piperidin-1-yl}pyridin-3-yl)piperidine-2,6-dione], the half-maximal degradation concentration (DC50) is < 0.1 µM and the greatest degradation seen (Dmax) fell in the range of 70 to 85%.

Turning to `CC(C)n1cnc2cc(-c3ccc4c(c3)N([C@H]3C[C@@H](N5CCCCC5)C3)C(=O)C43CCN(C(=O)[C@H]4CN(C(=O)C5CCN(c6ccc(C7CCC(=O)NC7=O)cn6)CC5)C[C@H]4C)CC3)nc(NC3CC3)c21` (mixture of isomers) [Example 248, (3RS)-3-(6-{4-[(3R,4S)-3-({6-[4-(cyclopropylamino)-3-(propan-2-yl)-3H-imidazo[4,5-c]pyridin-6-yl]-2-oxo-1-[(1S,3S)-3-(piperidin-1-yl)cyclobutyl]-1,2-dihydrospiro[indole-3,4′-piperidin]-1′-yl}carbonyl)-4-methylpyrrolidine-1-carbonyl]piperidin-1-yl}pyridin-3-yl)piperidine-2,6-dione], the DC50 is < 0.1 µM and the maximal degradation (Dmax) was > 85%.

Regarding `CC(C)n1cnc2cc(-c3ccc4c(c3)N([C@H]3C[C@@H](N5CCCCC5)C3)C(=O)C43CCN(C(=O)[C@@H]4CCN(C(=O)C5CCN(c6ccc(C7CCC(=O)NC7=O)cn6)CC5)[C@@H]4C)CC3)nc(Nc3ccccc3F)c21` (mixture of isomers) [Example 249, (3RS)-3-(6-{4-[(2R,3R)-3-[(6-{4-[(2-fluorophenyl)amino]-3-(propan-2-yl)-3H-imidazo[4,5-c]pyridin-6-yl}-2-oxo-1-[(1S,3S)-3-(piperidin-1-yl)cyclobutyl]-1,2-dihydrospiro[indole-3,4′-piperidin]-1′-yl)carbonyl]-2-methylpyrrolidine-1-carbonyl]piperidin-1-yl}pyridin-3-yl)piperidine-2,6-dione], the half-maximal degradation concentration (DC50) was < 0.1 µM and the maximal degradation (Dmax) fell in the range of 50 to 70%.

Take `CC(C)n1cnc2cc(-c3ccc4c(c3)N([C@H]3C[C@@H](N5CCCCC5)C3)C(=O)C43CCN(C(=O)C4CN(C(=O)C5CCN(c6ccc(C7CCC(=O)NC7=O)cn6)CC5)CC(C)(C)C4)CC3)nc(NC3CC3)c21` (mixture of isomers) [Example 250, (3RS)-3-(6-{4-[5-({6-[4-(cyclopropylamino)-3-(propan-2-yl)-3H-imidazo[4,5-c]pyridin-6-yl]-2-oxo-1-[(1S,3S)-3-(piperidin-1-yl)cyclobutyl]-1,2-dihydrospiro[indole-3,4′-piperidin]-1′-yl}carbonyl)-3,3-dimethylpiperidine-1-carbonyl]piperidin-1-yl}pyridin-3-yl)piperidine-2,6-dione]: the DC50 is < 0.1 µM and the Dmax is 70 to 85%.

`CC(C)n1cnc2cc(-c3ccc4c(c3)N([C@H]3C[C@@H](N5CCCCC5)C3)C(=O)C43CCN(C(=O)C45CCC(C)(C4)N(C(=O)C4CCN(c6ccc(C7CCC(=O)NC7=O)cn6)CC4)C5)CC3)nc(NC3CC3)c21` (mixture of isomers) [Example 251, (3RS)-3-(6-{4-[4-({6-[4-(cyclopropylamino)-3-(propan-2-yl)-3H-imidazo[4,5-c]pyridin-6-yl]-2-oxo-1-[(1S,3S)-3-(piperidin-1-yl)cyclobutyl]-1,2-dihydrospiro[indole-3,4′-piperidin]-1′-yl}carbonyl)-1-methyl-2-azabicyclo[2.2.1]heptane-2-carbonyl]piperidin-1-yl}pyridin-3-yl)piperidine-2,6-dione]: the DC50 is < 0.1 µM and the maximal degradation (Dmax) lay within 50 to 70%.

For the compound `CC(C)n1cnc2cc(-c3ccc4c(c3)N([C@H]3C[C@@H](N5CCCCC5)C3)C(=O)C43CCN(C(=O)[C@H]4CN(C(=O)C5CCN(c6ccc(C7CCC(=O)NC7=O)cc6)CC5)CC4(C)C)CC3)nc(NC3CC3)c21` (mixture of isomers) [Example 252, (3RS)-3-(4-{4-[(4R)-4-({6-[4-(cyclopropylamino)-3-(propan-2-yl)-3H-imidazo[4,5-c]pyridin-6-yl]-2-oxo-1-[(1S,3S)-3-(piperidin-1-yl)cyclobutyl]-1,2-dihydrospiro[indole-3,4′-piperidin]-1′-yl}carbonyl)-3,3-dimethylpyrrolidine-1-carbonyl]piperidin-1-yl}phenyl)piperidine-2,6-dione], the DC50 is < 0.1 µM and the greatest degradation seen (Dmax) lay in the range of 70 to 85%.

Regarding `CC1CN(C(=O)C2CCN(c3ccc(C4CCC(=O)NC4=O)cn3)CC2)CCC1C(=O)N1CCC2(CC1)C(=O)N([C@H]1C[C@@H](N3CCCCC3)C1)c1cc(-c3cc4ncn(C(C)C)c4c(NC4CC4)n3)ccc12` (mixture of isomers) [Example 253, (3RS)-3-(6-{4-[4-({6-[4-(cyclopropylamino)-3-(propan-2-yl)-3H-imidazo[4,5-c]pyridin-6-yl]-2-oxo-1-[(1S,3S)-3-(piperidin-1-yl)cyclobutyl]-1,2-dihydrospiro[indole-3,4′-piperidin]-1′-yl}carbonyl)-3-methylpiperidine-1-carbonyl]piperidin-1-yl}pyridin-3-yl)piperidine-2,6-dione], the DC50 was < 0.1 µM and the greatest degradation seen (Dmax) lay within 70 to 85%.

As to `CC1C(C(=O)N2CCC3(CC2)C(=O)N([C@H]2C[C@@H](N4CCCCC4)C2)c2cc(-c4cc5ncn(C(C)C)c5c(NC5CC5)n4)ccc23)CCCN1C(=O)C1CCN(c2ccc(C3CCC(=O)NC3=O)cc2)CC1` (mixture of isomers) [Example 254, (3RS)-3-(4-{4-[3-({6-[4-(cyclopropylamino)-3-(propan-2-yl)-3H-imidazo[4,5-c]pyridin-6-yl]-2-oxo-1-[(1S,3S)-3-(piperidin-1-yl)cyclobutyl]-1,2-dihydrospiro[indole-3,4′-piperidin]-1′-yl}carbonyl)-2-methylpiperidine-1-carbonyl]piperidin-1-yl}phenyl)piperidine-2,6-dione], the DC50 lay in the range of 0.1 to 0.5 µM and the Dmax was 50 to 70%.

Take `CCC1(C(=O)N2CCC3(CC2)C(=O)N([C@H]2C[C@@H](N4CCCCC4)C2)c2cc(-c4cc5ncn(C(C)C)c5c(NC5CC5)n4)ccc23)CCN(C(=O)C2CCN(c3ccc(C4CCC(=O)NC4=O)cn3)CC2)CC1` (mixture of isomers) [Example 255, (3RS)-3-(6-{4-[4-({6-[4-(cyclopropylamino)-3-(propan-2-yl)-3H-imidazo[4,5-c]pyridin-6-yl]-2-oxo-1-[(1S,3S)-3-(piperidin-1-yl)cyclobutyl]-1,2-dihydrospiro[indole-3,4′-piperidin]-1′-yl}carbonyl)-4-ethylpiperidine-1-carbonyl]piperidin-1-yl}pyridin-3-yl)piperidine-2,6-dione]: the half-maximal degradation concentration (DC50) is < 0.1 µM and the Dmax is > 85%.

Regarding `COC1CC(C(=O)N2CCC3(CC2)C(=O)N([C@H]2C[C@@H](N4CCCCC4)C2)c2cc(-c4cc5ncn(C(C)C)c5c(NC5CC5)n4)ccc23)CN(C(=O)C2CCN(c3ccc(C4CCC(=O)NC4=O)cn3)CC2)C1` (mixture of isomers) [Example 256, (3RS)-3-(6-{4-[3-({6-[4-(cyclopropylamino)-3-(propan-2-yl)-3H-imidazo[4,5-c]pyridin-6-yl]-2-oxo-1-[(1S,3S)-3-(piperidin-1-yl)cyclobutyl]-1,2-dihydrospiro[indole-3,4′-piperidin]-1′-yl}carbonyl)-5-methoxypiperidine-1-carbonyl]piperidin-1-yl}pyridin-3-yl)piperidine-2,6-dione], the DC50 fell in the range of 0.1 to 0.5 µM and the Dmax is 50 to 70%.
